The results in this text go back to patent publication US20030059852A1, “Modulation of integrin-mediated signal transduction” (COR Therapeutics, Inc., priority 1995, published 2003).

One assay concerns GP IIIa (β3). Kind of assay: In vivo tyrosine phosphorylation of GPIIIa, 2-D gel electrophoresis and anti-phosphotyrosine immunoblotting. The format is cell-based, human. How it is done:
Blood from healthy volunteers was collected into ⅙^th volume of 85 mM sodium citrate, 111 mM dextrose and 71 mM citric acid supplemented with 50 ng/ml PGI2 and 0.6 U/ml apyrase. After centrifugation of the blood at 160× g for 20 minutes the platelet rich plasma was removed and subjected to further centrifugation at 730× g for 10 minutes to sediment the platelets. Platelets were then resuspended in 13 mM trisodium citrate, 120 mM NaCl and 30 mM dextrose pH 7.0 and washed x 2 with this buffer. The platelets were then resuspended in 12 mM NaHCO3, 138 mM NaCl, 5.5 mM dextrose, 2.9 mM KCl, 10 mM Hepes, 1 mM CaCl2, 0.3 U/ml apyrase and allowed to recover for 1 hour at 37° C. […]
330 μl of 3× non-reducing sample buffer containing 1 mM sodium vanadate was added to 1 ml of control or thrombin-aggregated platelets. […] This membrane was then immunoblotted with anti-phosphotyrosine antibodies and the relative amount of phosphorylated GPIIIa was determined by densitometry for both control and thrombin-aggregated samples. […]
However, a three to six fold enhancement of phosphorylation of GPIIIa was observed when platelets were lysed in a high concentration of SDS and the proteins immediately separated by 2-D gel electrophoresis prior to transfer to a nitrocellulose membrane, and immunoblotting to detect phosphorylated proteins with phosphotyrosine antibodies and with a GPIIIa antibody to quantitate GPIIIa. […]

The subject of the next assay is platelets. Description: Platelet aggregation induced by agonists. It counts as cell-based, human. How it is done:
Blood from healthy volunteers was collected into ⅙^th volume of 85 mM sodium citrate, 111 mM dextrose and 71 mM citric acid supplemented with 50 ng/ml PGI2 and 0.6 U/ml apyrase. After centrifugation of the blood at 160× g for 20 minutes the platelet rich plasma was removed and subjected to further centrifugation at 730× g for 10 minutes to sediment the platelets. Platelets were then resuspended in 13 mM trisodium citrate, 120 mM NaCl and 30 mM dextrose pH 7.0 and washed x 2 with this buffer. The platelets were then resuspended in 12 mM NaHCO3, 138 mM NaCl, 5.5 mM dextrose, 2.9 mM KCl, 10 mM Hepes, 1 mM CaCl2, 0.3 U/ml apyrase and allowed to recover for 1 hour at 37° C. Resting platelets were activated by the addition of 1 nM thrombin with stirring until aggregates were visible (1-3 minutes).
Additional experiments have been performed using a 2-D gel electrophoresis protocol and have yielded further information on the tyrosine phosphorylation of GPIIIa (FIG. 3). GPIIIa tyrosine phosphorylation can be observed in platelets induced to aggregate using agonists other than thrombin. […] In all cases platelet aggregation appears to be a prerequisite for GPIIIa tyrosine phosphorylation.

Take `Nc1ncnc2c1ncn2[C@@H]1O[C@H](COP(=O)(O)OP(=O)(O)O)[C@@H](O)[C@H]1O` [ADP]: the GPIIIa tyrosine phosphorylation result with GP IIIa (β3) (2-D gel electrophoresis protocol) is recorded as “no increase”. The “β3 Phosphorylation” value in the assay with GP IIIa (β3) (platelets stimulated with the indicated agonist, 2-D gel, anti-phosphotyrosine immunoblotting) is listed as “no”. In addition, the platelet aggregation entry in the assay with platelets is on record as “does not induce platelet aggregation”. Moreover, the Aggregation entry with platelets (platelets stimulated with the indicated agonist) is “no”.
